Results as given in patent publication US5256788A, “Moranoline derivatives and their production and the use of moranoline and its derivatives as a stabilizing agent for enzymes” (Nippon Shinyaku Co. Ltd., priority 1989, dated 1993).

Key:
[1] = target: β-amylase (Glycine max, UniProt P10538); test: Stabilization of β-amylase by moranoline; format: biochemical, soybean; settings: 6000 μg/ml, incubated at 65° C., pH 4.8
Description: For control, a sample added with no moranoline was used.
The activity of β-amylase was determined by the 3,5-dinitrosalicylic acid method of Example 37.

[2] = test system: β-glucosidase; test: Stabilization of β-glucosidase by moranoline and N-methylmoranoline; format: biochemical; settings: 6 mg/ml of the hydrochloride, kept at 60° C.
Description: Test samples were (1) 1 ml of 0.2M buffer solution of β-glucosidase (300 μg/ml) alone, (2) 1 ml of 0.2M buffer solution of β-glucosidase (300 μg/ml) supplemented with 6 mg/ml of moranoline hydrochloride and, (3) 1 ml of 0.2M buffer solution of β-glucosidase (300 μg/ml) supplemented with 6 mg/ml of N-methylmoranoline hydrochloride. These test samples were kept at 60° C. and the residual enzyme activity was measured with passage of time.
For determination of the enzyme activity, there was used a method measuring absorbancy at 400 nm using […] as a substrate.
That is, 200 μl of 0.014M p-nitrophenyl-β-D-glucoside, 200 μl of the enzyme solution taken from each sample for sampling with passage of time which was appropriately diluted, and 600 μl of 0.2M acetate buffer solution (pH 4.5) were reacted at 30° C. for 15 minutes. After 2 ml of 0.1M disodium carbonate was added thereto to terminate the reaction, a color was formed and the color was measured at 400 nm. When absorbancy at the initiation of the reaction was made 100, relative absorbancy in each time was defined to be residual activity.

Sequence of β-amylase (P10538 whole entry): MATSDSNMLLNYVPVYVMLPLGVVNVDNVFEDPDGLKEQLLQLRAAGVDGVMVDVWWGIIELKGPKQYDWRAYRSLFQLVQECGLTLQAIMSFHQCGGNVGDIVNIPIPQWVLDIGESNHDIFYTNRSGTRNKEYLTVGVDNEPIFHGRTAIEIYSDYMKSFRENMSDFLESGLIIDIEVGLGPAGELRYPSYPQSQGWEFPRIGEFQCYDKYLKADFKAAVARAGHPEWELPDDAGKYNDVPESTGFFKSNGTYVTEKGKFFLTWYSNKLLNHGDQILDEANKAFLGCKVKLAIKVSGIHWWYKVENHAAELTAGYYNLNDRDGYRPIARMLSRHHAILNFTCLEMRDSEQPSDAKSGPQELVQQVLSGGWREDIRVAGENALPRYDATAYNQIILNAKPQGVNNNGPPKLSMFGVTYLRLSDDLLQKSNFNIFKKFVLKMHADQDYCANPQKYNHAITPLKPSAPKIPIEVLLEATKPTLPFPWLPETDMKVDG

In the case of `OC[C@H]1NC[C@H](O)[C@@H](O)[C@@H]1O` [moranoline], the “stabilizing action (residual activity, FIG. 6)” value [1] is reported as “stabilizing action” and the “stabilizing effect (residual activity, FIG. 4)” value [2] is reported as “stabilizing effect”.
